The text below walks through data of patent publication US6890708B2, “Method for improving the quality of sperm for artificial insemination of animals” (priority 2000, dated 2005).

What all share (assay type): cell-based, pig
In data set [1] the test system is Polymorphonuclear Neutrophils (PMN). The data set can be described thus: In vitro phagocytosis of boar sperm by PMN (phagocytosis assay). The following applies: for % of phagocytosed sperm: Exp. 1, preincubated 30 min. at 38° C. The method, then: Tyrode's medium was used as described as “standard Tyrode's medium” in […] et al. ([…], Harrison, R A P, Miller, N G A, Topper, E K, and Woelders, H, 1998, Enhanced Binding of Zona Pellucida Proteins to the Acrosomal Region of Intact Boar Spermatozoa in Response to Fertilizing Conditions: A Flow Cytometric Study. […] Serum was prepared from blood collected from 11 primiparous sows, pooled, and frozen in aliquots at -80° C. Per experiment, 20 ml peripheral blood of a single Dutch Landrace sow (each experiment a different sow) was collected in heparinized vacutainers (Venoject, Omnilabo, Breda, The Netherlands). The peripheral blood was subsequently diluted with an equal volume of phosphate buffered saline (PBS). […] The supernatant, including the mononuclear cells at the interface, was removed. The pellet was resuspended in 2 ml of ice-cold distilled water to lyse the erythrocytes. […] The PMNs were pelleted by centrifugation for 10 min at 400×g and the lysis procedure was repeated. […] All cell suspensions were pooled together, mixed well, and subjected to centrifugation. The PMN were resuspended in TM-s with inactivated complement, and the cell concentration was determined using a hemocytometer. The PMN preparation was stored overnight at 4° C. […] The viability, assessed by trypan blue exclusion, was >98%. Semen was obtained from Dutch A.I. stations. Per experiment, semen was used from a single Yorkshire breeding boar (each experiment a different boar). At the AI-station, the semen was diluted to a concentration of approximately 30×10^6 cells/ml in Beltsville Thawing Solution (BTS) (Johnson et al., 1988). The diluted semen was stored at 17° C. for up to 48 hours, until the diluted semen sample was used. […] Aliquots of 80 μl of the PMN suspension (see, PMN isolation and preparation of PMNs) in TM or TM-s, with either intact or inactivated complement, were transferred to a 96-well polystyrene microtest plate. […] The samples were incubated with gentle swirling on a test plate shaker. […] The heparin facilitates dissociation of agglutinated PMNs. The samples were thoroughly mixed, left for 15 min., and mixed again. […] The frozen-thawed semen was taken from a large stock of semen from one ejaculate and washed 3 times in PBS prior to use. […] The mounts enabled observation and counting of fluorescently labeled spermatozoa inside and outside the phagocytes. By focusing at different levels in the mount, spermatozoa that were located above or below the PMN could be distinguished from those that were phagocytosed. In many PMNs that had ingested a spermatozoon, the presence of the sperm nucleus or tail caused a conspicuous change of the shape of the PMN. Two hundred spermatozoa were evaluated and classified as inside or outside the PMN (i.e., phagocytosed or not phagocytosed). The same fixed mounts were used to assess the acrosome morphology of the non-phagocytosed spermatozoa at the moment of fixation.

In data set [2] the test system is boar spermatozoa. The data set can be described thus: Sperm viability in vitro (motility, acrosome morphology), Example I. The following applies: Exp. 1. Here is the method: Aliquots of 80 μl of the PMN suspension (see, PMN isolation and preparation of PMNs) in TM or TM-s, with either intact or inactivated complement, were transferred to a 96-well polystyrene microtest plate. To each well, 20 μl of sperm suspension (see, preparation of semen samples) was added and the microtest plate was placed in a humidified incubator at 38° C. with 5% CO2 in air. […] The samples were incubated with gentle swirling on a test plate shaker. After 15, 30, 45, 60 or 90 min., samples were quantitatively transferred into tubes containing an equal volume of 40 mg ml^−1 heparin (Sigma) in PBS. The heparin facilitates dissociation of agglutinated PMNs. The samples were thoroughly mixed, left for 15 min., and mixed again. Subsamples of 75 μl were fixed by addition of 25 μl of 2% (v/v) glutaraldehyde (Fluka, Brunschwig chemie, Amsterdam, The Netherlands) in PBS. “Blank” samples, i.e., sperm without PMNs (80 μl TM-s mixed with 20 μl sperm suspension), were incubated in parallel to monitor sperm survival during the treatment. “Reference” samples, i.e., frozen-thawed (killed) semen, were incubated in parallel with the PMNs as a reference for the phagocytotic activity of the PMNs. The frozen-thawed semen was taken from a large stock of semen from one ejaculate and washed 3 times in PBS prior to use.
For evaluation of phagocytosis, wet mounts of the fixed samples were examined with a combination of phase-contrast and fluorescence microscopy (Olympus BH2, Tokyo, Japan) at 400× magnification. The mounts enabled observation and counting of fluorescently labeled spermatozoa inside and outside the phagocytes. By focusing at different levels in the mount, spermatozoa that were located above or below the PMN could be distinguished from those that were phagocytosed. […] Two hundred spermatozoa were evaluated and classified as inside or outside the PMN (i.e., phagocytosed or not phagocytosed). The same fixed mounts were used to assess the acrosome morphology of the non-phagocytosed spermatozoa at the moment of fixation. One hundred cells were classified using phase-contrast microscopy at 400× magnification, as NAR (normal apical ridge), NAR' (slightly altered normal apical ridge), DAR (damaged apical ridge), MAR (missing apical ridge) and LAC (loose acrosomal cap), as described by Pursel et al. (Pursel V G, Schulman L L and Johnson L A, 1978, Distribution and morphology of fresh and frozen-thawed sperm in the reproductive tract of gilts after insemination Biology of Reproduction 19 69-76.)

In data set [3] the test system is boar spermatozoa. The description is as above. The conditions noted are these: Exp. 1; after adding active compound and pre-incubation 30 min. at 38° C.
The mark [4] stands for this setting: after adding active compound and pre-incubation 30 min. at 38° C.
Where [5] appears, read: blank samples without PMN, (2x), phagocytosis time 30 min.
Where [6] appears, read: blank samples without PMN, preincubated 30 min. at 38° C., phagocytosis time 30 min.

As to `CCCC(=O)Nc1ncnc2c1ncn2[C@@H]1O[C@@H]2COP(=O)(O)O[C@H]2[C@H]1OC(=O)CCC` [Db-cAMP, dibutyryl-cAMP], the “% of phagocytosed sperm” value in data set [1] (0.1 mM, phagocytosis time 15 min) was 35%; in data set [1] (0.1 mM, phagocytosis time 30 min), 59%; in data set [1] (0.1 mM, phagocytosis time 60 min), 60%; in data set [1] (0.1 mM, phagocytosis time 90 min) it was 65%; in data set [1] (0.2 mM, phagocytosis time 15 min) it was 47%; in data set [1] (0.2 mM, phagocytosis time 30 min), 47%. For the same compound, the “% of phagocytosed sperm” value came to 58% in data set [1] (0.2 mM, phagocytosis time 60 min) and 54% in data set [1] (0.2 mM, phagocytosis time 90 min). For the same compound, the “% DAR” value with boar spermatozoa [2] (setting [4]) stood at 23%. Besides, the “% LAC” value with boar spermatozoa [2] (setting [4]) is listed as 08%; in the data set with boar spermatozoa [2] (setting [5]), 08%; with boar spermatozoa [2] (setting [6]), 06%. For the same compound, the “% MAR” value with boar spermatozoa [2] (setting [4]) amounted to 02%. Further, the “% NAR” value with boar spermatozoa [2] (setting [4]) amounted to 67%; in the data set with boar spermatozoa [2] (setting [5]), 54%; with boar spermatozoa [2] (setting [6]), 56%. Also, the “% MAR (second value of NAR-MAR-MAR-LAC)” value with boar spermatozoa [2] (setting [5]) and in the data set on boar spermatozoa [2] (setting [6]) was 36% each time. Further, the “% MAR (third value of NAR-MAR-MAR-LAC)” value in the data set on boar spermatozoa [2] (setting [5]) and in the data set on boar spermatozoa [2] (setting [6]) was 02% each time. Moreover, the “% motile sperm” value in the data set with boar spermatozoa [3] was found to be 60%.

Regarding `O=C(O)CN(CCN(CC(=O)O)CC(=O)O)CC(=O)O` [EDTA], in data set [1], the “phagocytosis of sperm by PMN in vitro, in words” value (shortened to “phagocytosis of sperm by PMN”) is “reduce phagocytosis of sperm in vitro”.

With `Nc1ncnc2c1ncn2[C@@H]1O[C@@H]2COP(=O)(O)O[C@H]2[C@H]1O` [cAMP, cyclic Adenosine MonoPhosphate], the “phagocytosis of sperm by PMN” value in data set [1] is “inhibits the phagocytosis of sperm in vitro”.

For heparin, the “phagocytosis of sperm by PMN” value in data set [1] is reported as “inhibited strongly”.
